Results published in PMC12980303, “Development of a novel risk score reflecting the relative harm potential of synthetic cannabinoids based on prevalence estimates, well‐documented intoxication cases and basic pharmacological data” (Addiction (Abingdon, England), 2025).
Several values for one entry are separate records, joined by “and”; a condition that tells them apart may be missing. Equal values may be shown once. Read-outs that look alike come from different tables or passages of the source. Marks after values point to notes of the source that are not given here.

Key:
[1] = occurrence of SCRAs in intoxication samples of the prospective study; set-up: species or system human; conditions: 2013 to 2021; for No. of intoxications: 139 intoxication samples of the prospective study; for Percentage in %: proportion of 139 intoxications in which the substance was detected
From the text: For this study, the 10 SCRAs (AB‐[…], ADB‐[…], AB‐FUBINACA, FUB‐AMB, Cumyl‐PEGACLONE, MDMB‐4en‐PINACA, MDMB‐CHMICA, 5F‐MDMB‐PICA, 5F‐ADB and 5F‐PB‐22) which were most frequently detected in intoxications in a prospective observational study during the time period of 2013 to 2021 were selected (see Table 1). Additionally, JWH‐210, a model compound representative of the early SCRAs, along with two substances prevalent in screenings during years 2019/2020 (5F‐Cumyl‐PEGACLONE and 4F‐MDMB‐BICA), were included in this study (see Tables S2–S7). […] JWH‐018 was also included as a reference compound because of its historical use in this capacity. Including both reference compounds facilitates direct comparison with previously published data, thereby enhancing the relevance and interpretability of the results obtained in the present study. Information on the origin of the test and reference compounds and all chemicals used in this study can be found in Table S1.
The data on intoxication cases used for the development of this risk score were obtained from a prospective study. This study included patients who were treated in an emergency department room following the consumption of an NPS. Clinical symptoms and follow‐up information were documented using a structured questionnaire completed by the attending physicians. The methodology has been previously published. Residual serum (obtained from venous blood) and urine samples, accompanied by the completed questionnaires, were sent to the Poisons Information Center Freiburg for further analysis. The toxicological analyses of serum and urine samples were conducted at the Institute of Forensic Medicine Freiburg. No data was available on previous consumption patterns or potential development of tolerance after continued misuse. The study was conducted in accordance with the Declaration of Helsinki and approved by the regional ethics committee of the University of Freiburg (no. 235/13_130683). The intoxication cases included in this study are those in which SCRA use was confirmed by liquid chromatography tandem mass spectrometry (LC–MS/MS).

[2] = risk score from prevalence in routine forensic samples and intoxication cases (G1, PSS, TSS); set-up: species or system human; conditions: for G total (risk score): G1+G2+G3, higher value = greater toxicological risk; for G2: mean Poison Severity Score (PSS) of all intoxications with the SCRA; for G3: mean Toxicological Significance Score (TSS) of all intoxications with the SCRA; for G1: proportion in intoxication cases relative to prevalence in routine serum/blood and urine samples per quarter, 2013–2021, >1 over‐represented in intoxications
From the text: Therefore, higher values indicate substances with a higher risk. […] To take into account the severity of symptoms and the contribution of the specific NPS, two further summands were introduced. The first is based on the PSS, the second on the TSS. Again, higher values were associated with more severe symptoms and a stronger role of the NPS in causing the symptoms.
The risk score is composed of three components (parts G1, G2 and G3) and was designed as follows: (1) Gx=G1x+G2x+G3x,
Equation 2 takes into consideration several components: the number of intoxications with SCRA x in quarter k over the total number of intoxications of all investigated SCRAs in the same quarter; the number of serum/blood samples positive for SCRA x over the total number of serum/blood samples positive for all SCRAs plus the number of urine samples positive for SCRA x over the total number of urine samples positive for all SCRAs (this is divided by two to account for the two different sample types); and the number of quarters in which the SCRA x was prevalent. (2) G1x=∑k=1gak/bk/ck/dk+ek/fk/2/h+i
Consequently, equation 2 was mathematically rearranged. To further simplify the equation and reduce the formula signs, in equation 3 the following simplifications were taken: a/b=ai , c/d=as and e/f=au .
The sum of these quotients was divided by the number of all prevalent quarters (q p ). Prevalent quarters were defined as quarters in which on average the substance was detected in more than 5% of the positive serum and urine samples. If a poisoning occurred in a quarter in which the substance was not prevalent, the number of these quarters was added (q i ). This part of the score has similarities with an OR [42]. If the proportion of routine samples in a given quarter in which an intoxication with the respective substance occurred was zero (a s + a u = 0), a value of 0.01 was used for that quarter in the calculation of the quotient to avoid division by zero.
For part G2, the severity of the intoxication caused by the respective SCRA x was assessed on the basis of reported symptoms and follow‐up information using the PSS [20]. The PSS classifies the intoxication severity into five levels: (0) no, (1) mild, (2) moderate, (3) severe, and (4) fatal intoxication. […] For this purpose, the mean value of the PSS of all intoxications with the respective SCRA x was calculated ( G2x) .
For part G3, the involvement of the SCRA in the respective intoxications was assessed. This was evaluated on the basis of the TSS [21]. Elliott et al. developed the TSS to assess and classify the contribution of NPS in fatalities. In the present study, the TSS was determined to weigh the involvement of the investigated SCRA in the intoxication and the contribution of the SCRA to the observed symptoms. To determine the TSS value, factors such as the determined concentration of the SCRA, the presence of other recreational drugs or medicinal drugs, the general health of the patient and the consumption circumstances need to be considered. […] In cases with more than one drug detected, a TSS of 3 was only assigned where other compounds were present at concentrations below the range in which relevant effects are to be expected.
For the risk score, the mean value of the TSS of all intoxications with substance x was calculated ( G3x) . Analogous to the value of G2x , the value of G3x can theoretically be between 1 and 3. With a value of ‘1’, substance x was not mainly responsible for the symptoms in all of the intoxications (low level of significance), and with a value of ‘3’, it was the main cause in every poisoning in which it was detected.

hCB1 receptor [3] = molecular target: T1, hCB1 receptor (Homo sapiens, UniProt P21554)
T1 sequence (P21554 whole entry): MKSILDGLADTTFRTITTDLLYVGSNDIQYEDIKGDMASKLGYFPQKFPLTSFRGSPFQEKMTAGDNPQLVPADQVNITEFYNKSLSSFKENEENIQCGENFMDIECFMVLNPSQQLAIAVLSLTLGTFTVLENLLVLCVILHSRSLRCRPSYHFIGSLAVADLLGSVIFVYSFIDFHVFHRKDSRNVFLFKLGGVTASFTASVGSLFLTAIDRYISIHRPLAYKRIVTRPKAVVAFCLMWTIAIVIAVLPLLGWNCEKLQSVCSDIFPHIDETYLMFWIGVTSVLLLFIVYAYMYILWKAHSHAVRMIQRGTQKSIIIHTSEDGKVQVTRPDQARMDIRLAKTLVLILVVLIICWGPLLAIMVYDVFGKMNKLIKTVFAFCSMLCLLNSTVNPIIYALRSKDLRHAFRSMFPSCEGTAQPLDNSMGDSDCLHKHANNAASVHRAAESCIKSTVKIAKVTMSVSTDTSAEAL

hCB1 receptor [4] = molecular target: T1, hCB1 receptor; assay: functional [35S]GTPγS hCB1 activation assay; format: biochemical; conditions: for Emax: read-out: [35S]‐GTPγS assay Emax [%] (95% CI)
Procedure: (§1) Receptor assays were performed on three different days and each concentration was tested in duplicate.

hCB1 receptor [5] = molecular target: T1, hCB1 receptor; assay: competitive [3H]CP‐55940 radioligand binding assay (hCB1 receptor affinity); conditions: [3H]CP‐55940 competition, hCB1 membrane preparations (HEK293‐EBNA), Cheng–Prusoff, 95% CI in brackets
Procedure: as §1
From the IC50, the respective Ki values were calculated using the Cheng–Prusoff equation [39].

[6] = relative to CP‐55940; ref Grafinger et al. [27]; cited from earlier work
[7] = read-out: βarr2 assay EC50 [nM] (95% CI); ref Noble et al. [30]; cited from earlier work
[8] = relative to CP‐55940; originally normalised to JWH‐018, corrected with factor 0.3268; ref Noble et al. [30]; cited from earlier work
[9] = read-out: βarr2 assay EC50 [nM] (95% CI); ref Janssens et al. [43]; cited from earlier work
[10] = relative to CP‐55940; originally normalised to JWH‐018, corrected with factor 0.3268; ref Janssens et al. [43]; cited from earlier work

Structure (SMILES)	No. of intoxications [1]	Percentage in % [1] [%]	G total (risk score) [2]	G2 [2]	G3 [2]	G1 [2]	EC50 (hCB1 receptor [4]) [nM]	Emax (hCB1 receptor [4]) [%]	Ki (hCB1 receptor [5]; Ki [nM] (95% CI))	other results
CCCCCn1cc(C(=O)c2ccc(CC)c3ccccc23)c2ccccc21 [JWH‐210]	3	2.2	5.7	1.6	2.7	1.4	41.9	93.4	–	EC50 (hCB1 receptor [3]; read-out: βarr2 assay EC50 [nM] (95% CI); ref Cannaert et al. [45]; cited from earlier work): 25.3 nM; βarr2 assay Emax [%] (95% CI) (hCB1 receptor [3]; relative to CP‐55940; originally normalised to JWH‐018, corrected with factor 0.3268; ref Cannaert et al. [45]; cited from earlier work): 714.2 (672.3–759.5) ^a ^, ^i %; Ki (hCB1 receptor [5]; read-out: Ki [nM] (95% CI)): 1.43 nM
CCCCCn1cc(C(=O)c2cccc3ccccc23)c2ccccc21 [JWH‐018, reference compound]	–	–	–	–	–	–	38.6	118	2.86 nM	βarr2 assay Emax [%] (95% CI) (hCB1 receptor [3]; [6]): 306 ^b (281–333) %
CC(C)C(NC(=O)c1nn(Cc2ccc(F)cc2)c2ccccc12)C(N)=O (centres unmarked) [AB‐FUBINACA]	–	–	–	–	–	–	17.5	114	0.385 nM	EC50 (hCB1 receptor [3]; [7]): 15.6 nM; βarr2 assay Emax [%] (95% CI) (hCB1 receptor [3]; [8]): 990.5 (922.9–1059) ^a %
CCCCCCC(C)(C)c1ccc([C@@H]2C[C@H](O)CC[C@H]2CCCO)c(O)c1 [CP‐55940, reference compound]	–	–	–	–	–	–	–	96.9	–	–
COC(=O)C(NC(=O)c1nn(CCCCCF)c2ccccc12)C(C)(C)C (centres unmarked) [5F‐ADB]	33	24	6.9	1.9	2.6	2.5	1.95	103	0.0993 nM	EC50 (hCB1 receptor [3]; ref Wouters et al. [29]; read-out: βarr2 assay EC50 [nM] (95% CI); cited from earlier work): 0.84 nM
CCCCCn1c2ccccc2c2c(=O)n(C(C)(C)c3ccccc3)ccc21 [Cumyl‐PEGACLONE]	5	3.6	4.5	2.0	2.2	0.32	12.4	117	0.242 nM	EC50 (hCB1 receptor [3]; [9]): 0.23 nM; βarr2 assay Emax [%] (95% CI) (hCB1 receptor [3]; [10]): 1053 (960.8–1148) ^a %
COC(=O)C(NC(=O)c1cn(CC2CCCCC2)c2ccccc12)C(C)(C)C (centres unmarked) [MDMB‐CHMICA]	31	22	5.7	2.2	2.8	0.73	11.8	103	0.935 nM	EC50 (hCB1 receptor [3]; read-out: βarr2 assay EC50 [nM] (95% CI); ref Wouters et al. [31]; cited from earlier work): 2.2 nM; βarr2 assay Emax [%] (95% CI) (hCB1 receptor [3]; relative to CP‐55940; ref Wouters et al. [31]; cited from earlier work): 885.7 (818.5–958.0) %
COC(=O)C(NC(=O)c1cn(CCCCCF)c2ccccc12)C(C)(C)C (centres unmarked) [5F‐MDMB‐PICA]	15	11	8.1	2.1	2.8	3.2	7.88	112	0.321 nM	EC50 (hCB1 receptor [3]; [7]): 3.26 nM; βarr2 assay Emax [%] (95% CI) (hCB1 receptor [3]; [8]): 1014 (951.7–1075) ^a %
C=CCCCn1nc(C(=O)NC(C(=O)OC)C(C)(C)C)c2ccccc21 (centres unmarked) [MDMB‐4en‐PINACA]	6	4.3	6.8	2.2	3.0	1.6	13.4	114	–	EC50 (hCB1 receptor [3]; ref Grafinger et al. [27]; read-out: βarr2 assay EC50 [nM] (95% CI); cited from earlier work): 1.88 nM; βarr2 assay Emax [%] (95% CI) (hCB1 receptor [3]; [6]): 679 (623–730) %
CC(C)(c1ccccc1)n1ccc2c(c1=O)c1ccccc1n2CCCCCF [5F‐Cumyl‐PEGACLONE]	1	0.72	3.1	2.0	1.0	0.11	1.64	105	0.0991 nM	EC50 (hCB1 receptor [3]; [9]): 0.58 nM; βarr2 assay Emax [%] (95% CI) (hCB1 receptor [3]; [10]): 1089 (988.4–1190) ^a %
COC(=O)C(NC(=O)c1cn(CCCCF)c2ccccc12)C(C)(C)C (centres unmarked) [4F‐MDMB‐BICA]	2	1.4	5.5	2.0	3.0	0.48	137	104	5.67 nM	EC50 (hCB1 receptor [3]; read-out: βarr2 assay EC50 [nM] (95% CI); ref Cannaert et al. [44]; cited from earlier work): 121 nM; βarr2 assay Emax [%] (95% CI) (hCB1 receptor [3]; relative to CP‐55940; originally normalised to JWH‐018, corrected with factor 0.3268; ref Cannaert et al. [44]; cited from earlier work): 774.2 (685.4–911.9) ^a %
CC(C)(C)C(NC(=O)c1nn(CC2CCCCC2)c2ccccc12)C(N)=O (centres unmarked)	18	13	7.1	2.1	2.7	2.3	0.467	124	0.0229 nM and 0.0231 nM	EC50 (hCB1 receptor [3]; read-out: βarr2 assay EC50 [nM] (95% CI); ref Wouters et al. [29]; cited from earlier work): 0.34 nM; βarr2 assay Emax [%] (95% CI) (hCB1 receptor [3]; relative to CP‐55940; originally normalised to JWH‐018, corrected with factor 0.3268; ref Wouters et al. [29]; cited from earlier work): 803.6 ^a (724.3–921.4) %
